From patent US9636317B2, “Compositions and methods of use of phorbol esters” (priority 2007, dated 2017)
Values joined by “and” are separate entries in the source; they are usually repeats but may differ in a detail not shown here. Equal entries are not always repeated. “Also recorded” adds a separate entry of the source. Where two headings read alike, the source gives them in different places.

Tests used:
[1] = system: S180 cell-injected mice; test: Effect of TPA on peripheral WBC and Hb counts in S180 cell-injected mice; details: for WBC counts: second day after treatment
Protocol: Sarcoma 180 (S180) cells were injected into Kwen-Ming mice. On the third day, the mice were given TPA interperitoneally (i.p.). at 50, 100 or 200 μg/kg/day for 7 days. On the second day after the treatment was completed, blood samples were taken from the tails of the treated mice for WBC and Hb analyses.

[2] = Second clinical study of HIV+ patients: periphery blood count; type: in vivo, human; details: one value per patient
Protocol: (§1) Nine of the patients in Example III were given a second treatment of TPA. Of these nine, seven were asymptomatic at the beginning of the second trial. A tenth patient (patient #2a) who was symptomatic and had not previously been treated with TPA was added to the study. Each patient was administered a weight adjusted dosage of TPA (75 μg/sq m) in 200 ml of sterile saline intravenously over one hour. This dosage was given to each patient once a day for ten consecutive days followed by a rest period of ten days for three cycles and a total of 30 doses of TPA. Patients 5a, 6a, and 8a stopped taking anti-AIDS drugs one month prior to beginning the TPA treatment and beginning again one month after the third cycle. Patients 1-4-a, 7a, and 9a-10a continued taking anti-AIDS drugs throughout the treatment.
Blood samples were taken three days prior to starting treatment, after completing the first 10 day cycle of TPA infusion and again after the last TPA infusion and CD3, CD4, CD8, WBC, RBC, HGB and platelets were measured.

[3] = system: HIV patients; test: Second clinical study of HIV+ patients: symptoms and side effects (incl. case studies); type: in vivo, human
Protocol: as §1
Results of treatment of initially symptomatic AIDS patients treated with TPA according to the protocols of Example III, IV, and V. Patients who participated in multiple studies are in some cases identified by more than one patient number. All patient identification numbers correspond to the patient numbers in Tables 1-7.

[4] = system: CD3, CD4 and CD8 levels in peripheral blood; test: Third clinical study of HIV+ patients: CD3, CD4, CD8 by flow cytometry; type: in vivo, human; parameters: unit not given here; details: one value per patient
Protocol: Six patients, two males and four females between the ages of 37 and 52 years of age (Patients #13-18), were treated with TPA. Four of these patients previously received TPA treatment in combination with anti-HIV drugs in the two previous clinical studies. The two remaining patients had never been treated with TPA, but had previously received anti-HIV drug regimens. All treatments were stopped three days prior to the initiation of the third clinical study and were not resumed until 60 days after completion of the TPA treatment. The resumption of the standard HIV treatments was required by local health authorities.
(§2) Each patient in the study received 150 μg of TPA in 200 ml of sterile saline by intravenous infusion over a 1.5 to 2 hour period daily for 60 days for a total administered dose of 9.0 mg. Following completion of the 60 days of TPA therapy, these patients remained under observation for an additional 60 days though the received no further treatment.
(§3) CD3, CD4 and CD8 levels in peripheral blood were quantitated prior to starting treatment, and again at 30 and 60 days using flow cytometry and the appropriate antibodies obtained from B.D. Bioscience, San Diego, Calif. Viral load was determined using conventional methods at Kuang Ann men Hospital, Beijing, China. Patients RBC, WBC, platelets and hemoglobin levels were also measured.

[5] = system: HIV; type: in vivo; details: for HIV: antiretroviral therapy stopped, one value per patient
Protocol: Six patients, two males and four females between the ages of 37 and 52 years of age (Patients #13-18), were treated with TPA. Four of these patients previously received TPA treatment in combination with anti-HIV drugs in the two previous clinical studies. […] All treatments were stopped three days prior to the initiation of the third clinical study and were not resumed until 60 days after completion of the TPA treatment. The resumption of the standard HIV treatments was required by local health authorities.
as §2, §3

[6] = system: relapsed/refractory AML, other myeloid malignancies, Hodgkin's Disease, non-Hodgkin's lymphoma, solid tumors; test: TPA Phase 1 study in relapsed/refractory malignancies; type: in vivo
Description: An initial TPA Phase 1 study enrolled 35 patients [23 with relapsed/refractory AML, 2 with other myeloid malignancies (CML-blast crisis, myelodysplasia with excess blasts), 3 with Hodgkin's Disease, 3 with non-Hodgkin's lymphoma and 4 with solid tumors]. The majority of patients had relapsed/refractory AML. Our clinical results include one AML patient with stable disease for >5 months, who received 8 TPA infusions. In a second AML patient, a pronounced (5-fold) decline in the number of circulating blasts was seen following TPA administration. This decline in leukemic blasts persisted for 4 weeks, and the patient eventually died from a fungal infection.

[7] = system: lymphoma; test: Treatment of lymphoma (patient case); type: in vivo, human
Description: Patient five was diagnosed with a re-occurrence of lymphoma and a mass of 3.5 cm in diameter. […] As of 2011, they have been in remission for three years.

[8] = system: terminal lung cancer; test: Treatment of lung cancer (patient case); type: in vivo, human; details: 35 injections, 0.19 to 0.26 mg TPA three to four times a week
Description: Patient ten was diagnosed with terminal lung cancer which was refractory to chemotherapy. The cancer metastasized into their bones leaving them unable to walk.

[9] = system: circulating white blood cells and neutrophils; details: patients whose bone marrow function has been depressed by chemotherapy; cited from earlier work
[10] = TPA 50 μg/kg/day i.p. for 7 days
[11] = TPA 100 μg/kg/day i.p. for 7 days
[12] = TPA 200 μg/kg/day i.p. for 7 days
[13] = After first 10-day TPA infusing
[14] = After third 10-day TPA infusing
[15] = protocol of Example IV, individual patients

CCCCCCCCCCCCCC(=O)O[C@@H]1[C@@H](C)[C@@]2(O)[C@@H](C=C(CO)C[C@]3(O)C(=O)C(C)=C[C@@H]23)[C@@H]2C(C)(C)[C@]12OC(C)=O [TPA, 12-O-tetradecanoylphorbol-13-acetate]
Hb [1, 10]: 136 ± 11 g/L | WBC counts [1, 10]: 16.1±7.4 ×10^9/L | Hb [1, 11]: 149 ± 12 g/L | WBC counts [1, 11]: 18.7±3.0 ×10^9/L | Hb [1, 12]: 149 ± 10 g/L | WBC counts [1, 12]: 20.7±3.4 ×10^9/L | HGB [2, 13]: 88 g/L and 1.38 g/L and 107 g/L and 1.35 g/L and 142 g/L and 143 g/L and 128 g/L and 57 g/L and 92 g/L and 99 g/L | PLt [2, 13]: 2.38e+11 L⁻¹ and 3.38e+11 L⁻¹ and 3.06e+11 L⁻¹ and 3.15e+11 L⁻¹ and 2.56e+11 L⁻¹ and 2.58e+11 L⁻¹ and 2.21e+11 L⁻¹ and 2.14e+11 L⁻¹ and 1.87e+11 L⁻¹ and 3.25e+11 L⁻¹ | RBC [2, 13]: 2.14e+12 L⁻¹ and 3.83e+12 L⁻¹ and 2.92e+12 L⁻¹ and 3.46e+12 L⁻¹ and 3.48e+12 L⁻¹ and 3.76e+12 L⁻¹ and 3.86e+12 L⁻¹ and 1.99e+12 L⁻¹ and 2.58e+12 L⁻¹ and 2.61e+12 L⁻¹ | WBC [2, 13]: 3.7e+09 L⁻¹ and 9.8e+09 L⁻¹ and 3.6e+09 L⁻¹ and 5.7e+09 L⁻¹ and 4.2e+09 L⁻¹ and 6e+09 L⁻¹ and 4.3e+09 L⁻¹ and 2.6e+09 L⁻¹ and 2.9e+09 L⁻¹ and 4.4e+09 L⁻¹ | HGB [2, 14]: 102 g/L and 100 g/L and 140 g/L and 105 g/L and 144 g/L and 154 g/L and 123 g/L and 128 g/L and 67 g/L and 130 g/L | PLt [2, 14]: 182 ×10^9/L and 124 ×10^9/L and 549 ×10^9/L and 105 ×10^9/L and 130 ×10^9/L and 169 ×10^9/L and 293 ×10^9/L and 138 ×10^9/L (2×) and 170 ×10^9/L | RBC [2, 14]: 2.91e+12 L⁻¹ and 2.52e+12 L⁻¹ and 4.54e+12 L⁻¹ and 2.85e+12 L⁻¹ and 3.61e+12 L⁻¹ and 3.66e+12 L⁻¹ and 3.92e+12 L⁻¹ and 4.19e+12 L⁻¹ and 2.33e+12 L⁻¹ and 4.31e+12 L⁻¹ | WBC [2, 14]: 6.1e+09 L⁻¹ and 1.11e+10 L⁻¹ and 1.36e+10 L⁻¹ and 9.2e+09 L⁻¹ and 1.01e+10 L⁻¹ and 6.5e+09 L⁻¹ and 6e+09 L⁻¹ and 6.8e+09 L⁻¹ and 4e+09 L⁻¹ and 7e+09 L⁻¹ | AIDS symptoms in the symptomatic patients (#9a, #2a) ([3]; after three cycles of TPA): experienced a disappearance of AIDS symptoms | AIDS symptoms in the other eight patients ([3]; began the study without AIDS symptoms): symptom free at the end of the study | adverse effects during TPA treatment (individual patient) ([3]; protocol of Example IV): no adverse effects; also recorded: no side effects | symptoms after treatment with TPA (individual patient) ([3]; protocol of Example IV): continues to have no symptoms of AIDS; also recorded: the fever and diarrhea were no longer a problem; also recorded: does not have any symptoms of AIDS; also recorded: has not had any symptoms of AIDS; also recorded: Her mental and physical condition has improved considerably | duration of the increase in body temperature [3, 15]: two | increase in body temperature during TPA treatment [3, 15]: 38.5 degrees centigrade | CD3 ([4]; Sixty Days After TPA): 902 and 2099 and 1305 and 317 and 579 and 2689 | CD4 ([4]; Sixty Days After TPA): 369 and 11 and 46 and 31 and 165 and 721 | CD8 ([4]; Sixty Days After TPA): 485 and 1507 and 1220 and 246 and 290 and 1897 | CD3 ([4]; Thirty Days After TPA, 150 μg i.v. daily for 60 days): 1522 and 1865 and 1477 and 594 and 703 and 2771 | CD4 ([4]; Thirty Days After TPA): 613 and 8 and 105 and 112 and 229 and 735 | CD8 ([4]; Thirty Days After TPA): 796 and 1408 and 1318 and 424 and 343 and 1938 | HIV ([5]; Sixty Days After TPA): 0.038 copies/ml (All Figures in Mill and Undetectable (2×) and 0.012 copies/ml (All Figures in Mill and 0.056 copies/ml (All Figures in Mill and 0.133 copies/ml (All Figures in Mill | HIV ([5]; Thirty Days After TPA): 0.353 copies/ml (All Figures in Mill and 1.99 copies/ml (All Figures in Mill and 1.28 copies/ml (All Figures in Mill and 0.152 copies/ml (All Figures in Mill and 0.174 copies/ml (All Figures in Mill and 0.533 copies/ml (All Figures in Mill | viral load rebound after discontinuation of antiretroviral therapy ([5]; six patients, 150 μg TPA daily for 60 days): no rebound in viral levels; also recorded: no viral load rebound | patients with grade III non-hematologic dose limiting toxicities (DLT) ([6]; 0.188 mg/m2 d1-5, 8-12): 2 out of 3 | maximum tolerated TPA dose as a single agent ([6]; d1-5 and 8-12): 0.125 mg/m2/d | duration of stable disease ([6]; one AML patient, 8 TPA infusions): > 5 months | response of relapsed and refractory Hodgkin's disease ([6]; one patient): partial remission of a chest wall mass | persistence of the decline in leukemic blasts ([6]; second AML patient): 4 weeks | decline in the number of circulating blasts ([6]; second AML patient, following TPA administration): 5 fold | lymphoma mass (3.5 cm in diameter) ([7]; 15 injections of 0.19 mg TPA every other day for 30 days): the mass disappeared | duration of remission ([7]; as of 2011): three years | outcome, terminal lung cancer metastasized into bones [8]: in remission and able to walk normally | circulating white blood cells and neutrophils [9]: increase in circulating white blood cells and neutrophils
